Measurements as given in PMC9200803, “Design, synthesis, and biological evaluation of tetrahydroquinolinones and tetrahydroquinolines with anticancer activity” (Scientific Reports, 2022).

Test system: HCT-116 cells
Experiment: Acridine orange staining of acidic vesicular organelles
Type: cell-based, human
Details: HCT-116, p < 0.01
Description: Then, to elucidate whether compound 20d can act as an autophagy modulator, we stained cells with acridine orange (AO), a lysotropic agent. AO is a weak base that can permeate the cell membrane in an uncharged state emitting green fluorescence. After protonation, AO forms aggregates in acidic vesicular organelles (AVOs), emitting red fluorescence. […] One of the hallmarks of autophagy is the conjugation of LC3-I with phosphatidylethanolamine, followed by its conversion to autophagosome-associated form LC3-II[39]. Taking this into account, we evaluated the expression of LC3I/II in colon cancer cells after exposure to 20d. Furthermore, we studied the expression of LAMP-1, a well-known lysosomal marker. […] This observation was also confirmed by increased punctate cytosolic LC3 fluorescence intensity when HCT-116 cells were assessed by confocal microscopy (Fig. 8e,g). […] It has been shown that multiple signaling pathways are involved in the modulation of autophagy, including the PI3K/AKT/mTOR pathway, which is especially involved in the stage of autophagosome elongation[41],[42]. In this study, we investigated whether 20d-induced autophagy in HCT-116 cells is related to PI3K/AKT/mTOR signaling. […] This proves that 20d induced autophagy cell death in HCT-116 cells by interfering with the PI3K/AKT/mTOR signaling pathway.

Structure (SMILES): O=C(Nc1cccc(F)c1)OC1CCCc2c(-c3ccccc3)cc(=O)[nH]c21 (stereo not shown) [Compound 20d, (2-oxo-4-phenyl-5,6,7,8-tetrahydroquinolin-8-yl) N-(3-fluorophenyl)carbamate]
- increase in red fluorescence (AVOs) in comparison to vehicle: 1.9 fold
